For assay [1], the target named is p38a/MK2 (Homo sapiens (Human), UniProt P49137+Q16539). Put plainly: biochemical. As to conditions: 10-point 1:3 dilution, 10 μM ATP, 2 h incubation. The method, then:
(§1) Expression vectors of the recombinant MK2 and PRAK kinases were constructed by cloning of the codon optimized gene sequences of MK2 (Uniprot ID P49137, amino acid fragment F46-H400), or PRAK (Uniprot ID Q81W41, amino acid fragment M1-Q471) into pGEX-4T1 (GE) for over expression of these kinases with N-terminal GST-tag. Protein expression was carried out in E. coli BL21 by growing the hosts in TB medium, induction of protein expression with 0.5 mM IPTG at approximate 0.8 OD600, and incubation of the cultures at 18° C. for 14-20 hours afterwards. The harvested cells were resuspended in […] of Lysis buffer (50 mM Tris-HCl, pH 8.0, 500 mM NaCl, 1 mM DTT, 5% glycerol, and 1 mM PMSF) per gram of wet cell mass and homogenized at 4° C. in a microfluidizer (ATS, Suzhou, China) at 14,000 psi pressure, 3 passes. The cell lysates were clarified by centrifugation and the supernatants containing the GST-fusion proteins were purified by affinity chromatography using GSH-Sepharose (GE) gravity flow columns pre-equilibrated in Buffer A (50 mM Tris-HCl, pH 8.0, 500 mM NaCl, 1 mM DTT, and 5% glycerol). After thorough washing of the columns with Buffer A, the bound GST-proteins were eluted by Buffer B (50 mM Tris, pH 8.0, 500 mM NaCl, 1 mM DTT, 5% glycerol, 10 mM glutathione), followed by size-exclusion purification on Superdex 200 column equilibrated in Buffer A. The purified proteins were concentrated to approximately 1 mg/ml and stored at −80° C.
(§2) This study evaluates the inhibitory potency of invention compound on p38/MK2 pathway vs p38/PRAK pathway. More specially the compound concentration (IC50) was determined that inhibited half of the maximal activation of MK2 or PRAK by p38. MK2 activation study was set up without or with a serial of 10-point 1:3 dilution of invention compound at top dose of 1 or 10 μM, and PRAK activation study was set up without or with a serial of 10-point 1:3 dilution of invention compound at top dose of 300 μM. The MIK2 and PRAK activity were determined by the phosphorylation level of HSP27 peptide conjugated with FITC.

In assay [2] the target is p38a/PRAK (Homo sapiens (Human), UniProt Q16539). Put plainly: biochemical. The note with it: 10-point 1:3 dilution, top dose 300 μM; 10 μM ATP, 2 h incubation; read-out: p38a/PRAK Enzyme pIC50 (converted). The method, then: as §1, §2
p38a/PRAK, sequence (Q16539 whole entry): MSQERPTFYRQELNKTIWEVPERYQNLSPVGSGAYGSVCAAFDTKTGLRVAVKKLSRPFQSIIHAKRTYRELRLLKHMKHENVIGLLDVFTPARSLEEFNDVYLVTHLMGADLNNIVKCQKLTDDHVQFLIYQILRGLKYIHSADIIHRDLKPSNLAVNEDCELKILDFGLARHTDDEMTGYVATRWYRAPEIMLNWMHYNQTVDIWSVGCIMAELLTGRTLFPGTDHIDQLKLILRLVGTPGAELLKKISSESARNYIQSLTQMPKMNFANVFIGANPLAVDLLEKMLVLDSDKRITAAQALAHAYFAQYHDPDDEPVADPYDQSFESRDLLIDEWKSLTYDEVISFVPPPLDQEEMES
Setting [3] is: top dose 1 μM, read-out: p38a/MK2 (1 μM) Enzyme pIC50 (converted).
The mark [4] stands for this setting: top dose 10 μM, read-out: p38a/MK2 (10 μM) Enzyme pIC50 (converted).

Read-outs that look alike come from different tables or passages of the source. Bounds are passed on as bounds.

p38a/MK2, sequence (Q16539 whole entry, the tested form may be a part): as the sequence (Q16539 whole entry) above
p38a/MK2, sequence (P49137 46-400): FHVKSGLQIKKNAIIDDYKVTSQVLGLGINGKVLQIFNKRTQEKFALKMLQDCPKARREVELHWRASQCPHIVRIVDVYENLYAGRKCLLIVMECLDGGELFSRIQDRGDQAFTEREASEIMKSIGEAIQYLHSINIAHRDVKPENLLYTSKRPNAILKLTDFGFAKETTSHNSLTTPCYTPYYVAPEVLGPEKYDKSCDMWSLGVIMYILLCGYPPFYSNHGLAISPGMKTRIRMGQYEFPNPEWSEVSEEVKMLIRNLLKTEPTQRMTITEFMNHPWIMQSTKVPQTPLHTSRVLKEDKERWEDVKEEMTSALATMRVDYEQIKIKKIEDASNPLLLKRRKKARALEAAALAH

`CCOC(=O)C(C)(C)n1nc(-c2cc(-n3c(C)cc(OCc4ncc(F)cc4F)c(Cl)c3=O)c(C)cn2)ccc1=O` (atropisomer, axis not shown) [Example 6, ethyl 2-(3-{3-chloro-4-[(3,5-difluoropyridin-2-yl)methoxy]-5′,6-dimethyl-2-oxo-[1,4′-bipyridin]-2′-yl}-6-oxopyridazin-1-yl)-2-methylpropanoate]: the IC50 in assay [1] (setting [3]) was 20 nM; in assay [2] it was 6310 nM.

As for `Cc1cnc(-n2cccc(C(C)(C)O)c2=O)cc1-n1c(C)cc(OCc2ncc(F)cc2F)c(Cl)c1=O` (single isomer, unassigned) [Example 1A, rel-3-chloro-4-[(3,5-difluoropyridin-2-yl)methoxy]-2′-[3-(2-hydroxypropan-2-yl)-2-oxopyridin-1-yl]-5′,6-dimethyl-[1,4′-bipyridin]-2-one], the values for the IC50 in assay [1] (setting [3]), in assay [1] (setting [4]) and in assay [2] were 2 nM, 3.16 nM and 3160 nM, respectively.

`Cc1cnc(-n2cccc(C(C)(C)O)c2=O)cc1-n1c(C)cc(OCc2ncc(F)cc2F)c(Cl)c1=O` (single isomer, unassigned) [Example 1B, rel-3-chloro-4-[(3,5-difluoropyridin-2-yl)methoxy]-2′-[3-(2-hydroxypropan-2-yl)-2-oxopyridin-1-yl]-5′,6-dimethyl-[1,4′-bipyridin]-2-one]: the IC50 in assay [1] (setting [4]) was 398 nM; in assay [2] it was above 316000 nM.

Consider `Cc1ccc(-n2cccc(C(C)(C)O)c2=O)cc1-n1c(C)cc(OCc2ncc(F)cc2F)c(Cl)c1=O` (single isomer, unassigned) [Example 2A, rel-3-chloro-4-[(3,5-difluoropyridin-2-yl)methoxy]-1-{5-[3-(2-hydroxypropan-2-yl)-2-oxopyridin-1-yl]-2-methylphenyl}-6-methylpyridin-2-one], for which the IC50 was 3.98 nM in assay [1] (setting [3]) and 1260 nM in assay [2].

Consider `Cc1ccc(-n2cccc(C(C)(C)O)c2=O)cc1-n1c(C)cc(OCc2ncc(F)cc2F)c(Cl)c1=O` (single isomer, unassigned) [Example 2B, rel-3-chloro-4-[(3,5-difluoropyridin-2-yl)methoxy]-1-{5-[3-(2-hydroxypropan-2-yl)-2-oxopyridin-1-yl]-2-methylphenyl}-6-methylpyridin-2-one], for which the IC50 in assay [1] (setting [3]) was above 1000 nM; in assay [2] it was above 316000 nM.

Take `COCc1cc(OCc2ncc(F)cc2F)c(Cl)c(=O)n1-c1cc(-n2cccc(C(C)(C)O)c2=O)ncc1C` (single isomer, unassigned) [Example 3A, rel-3-chloro-4-[(3,5-difluoropyridin-2-yl)methoxy]-2′-[3-(2-hydroxypropan-2-yl)-2-oxopyridin-1-yl]-6-(methoxymethyl)-5′-methyl-[1,4′-bipyridin]-2-one]: the results for the IC50 in assay [1] (setting [3]) and in assay [2] were 6.31 nM and 5010 nM, respectively.

For `COCc1cc(OCc2ncc(F)cc2F)c(Cl)c(=O)n1-c1cc(-n2cccc(C(C)(C)O)c2=O)ncc1C` (single isomer, unassigned) [Example 3B, rel-3-chloro-4-[(3,5-difluoropyridin-2-yl)methoxy]-2′-[3-(2-hydroxypropan-2-yl)-2-oxopyridin-1-yl]-6-(methoxymethyl)-5′-methyl-[1,4′-bipyridin]-2-one], the IC50 is above 1000 nM in assay [1] (setting [3]) and above 316000 nM in assay [2].

Regarding `Cc1cnc(-n2cccc(C(C)(C)O)c2=O)cc1-n1c(C)cc(OCc2ncc(Cl)cc2F)c(Cl)c1=O` (single isomer, unassigned) [Example 4A, rel-3-chloro-4-[(5-chloro-3-fluoropyridin-2-yl)methoxy]-2′-[3-(2-hydroxypropan-2-yl)-2-oxopyridin-1-yl]-5′,6-dimethyl-[1,4′-bipyridin]-2-one], the IC50 in assay [1] (setting [3]) was 2 nM; in assay [2] it was 5010 nM.

For the molecule `Cc1cnc(-n2cccc(C(C)(C)O)c2=O)cc1-n1c(C)cc(OCc2ncc(Cl)cc2F)c(Cl)c1=O` (single isomer, unassigned) [Example 4B, rel-3-chloro-4-[(5-chloro-3-fluoropyridin-2-yl)methoxy]-2′-[3-(2-hydroxypropan-2-yl)-2-oxopyridin-1-yl]-5′,6-dimethyl-[1,4′-bipyridin]-2-one], the results for the IC50 in assay [1] (setting [3]) and in assay [2] were above 1000 nM and above 316000 nM, respectively.

Turning to `Cc1cnc(-n2ccnc(C(C)(C)O)c2=O)cc1-n1c(C)cc(OCc2ncc(F)cc2F)c(Cl)c1=O` (single isomer, unassigned) [Example 5A, rel-3-chloro-4-[(3,5-difluoropyridin-2-yl)methoxy]-2′-[3-(2-hydroxypropan-2-yl)-2-oxopyrazin-1-yl]-5′,6-dimethyl-[1,4′-bipyridin]-2-one], the values for the IC50 in assay [1] (setting [3]) and in assay [2] were 2.51 nM and 2510 nM, respectively.

With `Cc1cnc(-n2ccnc(C(C)(C)O)c2=O)cc1-n1c(C)cc(OCc2ncc(F)cc2F)c(Cl)c1=O` (single isomer, unassigned) [Example 5B, rel-3-chloro-4-[(3,5-difluoropyridin-2-yl)methoxy]-2′-[3-(2-hydroxypropan-2-yl)-2-oxopyrazin-1-yl]-5′,6-dimethyl-[1,4′-bipyridin]-2-one], the IC50 in assay [1] (setting [3]) is above 1000 nM; in assay [2] it was above 316000 nM.

As for `Cc1cnc(-n2cccc(C(C)(C)O)c2=O)cc1-n1c(C)cc(OCc2ncc(F)cc2Cl)c(Cl)c1=O` (single isomer, unassigned) [Example 7A, rel-3-chloro-4-[(3-chloro-5-fluoropyridin-2-yl)methoxy]-2′-[3-(2-hydroxypropan-2-yl)-2-oxopyridin-1-yl]-5′,6-dimethyl-[1,4′-bipyridin]-2-one], the IC50 in assay [1] (setting [3]) is 1 nM; in assay [2], 7940 nM.

On to `Cc1cnc(-n2cccc(C(C)(C)O)c2=O)cc1-n1c(C)cc(OCc2ncc(F)cc2Cl)c(Cl)c1=O` (single isomer, unassigned) [Example 7B, rel-3-chloro-4-[(3-chloro-5-fluoropyridin-2-yl)methoxy]-2′-[3-(2-hydroxypropan-2-yl)-2-oxopyridin-1-yl]-5′,6-dimethyl-[1,4′-bipyridin]-2-one], for which the IC50 in assay [1] (setting [3]) was above 1000 nM; in assay [2], above 316000 nM.

For `Cc1cnc(-n2cccc(C3CCOCC3)c2=O)cc1-n1c(C)cc(OCc2ncc(F)cc2F)c(Cl)c1=O` (single isomer, unassigned) [Example 8A, rel-3-chloro-4-[(3,5-difluoropyridin-2-yl)methoxy]-5′,6-dimethyl-2′-[3-(oxan-4-yl)-2-oxopyridin-1-yl]-[1,4′-bipyridin]-2-one], the IC50 in assay [1] (setting [3]) was 0.794 nM; in assay [2], 2510 nM.

For the molecule `Cc1cnc(-n2cccc(C3CCOCC3)c2=O)cc1-n1c(C)cc(OCc2ncc(F)cc2F)c(Cl)c1=O` (single isomer, unassigned) [Example 8B, rel-3-chloro-4-[(3,5-difluoropyridin-2-yl)methoxy]-5′,6-dimethyl-2′-[3-(oxan-4-yl)-2-oxopyridin-1-yl]-[1,4′-bipyridin]-2-one], the IC50 in assay [1] (setting [3]) was above 1000 nM; in assay [2], above 316000 nM.

Regarding `Cc1cnc(-n2nccc(C(C)(C)O)c2=O)cc1-n1c(C)cc(OCc2ncc(F)cc2F)c(Cl)c1=O` (single isomer, unassigned) [Example 9A, rel-3-chloro-4-[(3,5-difluoropyridin-2-yl)methoxy]-2′-[5-(2-hydroxypropan-2-yl)-6-oxopyridazin-1-yl]-5′,6-dimethyl-[1,4′-bipyridin]-2-one], the IC50 in assay [1] (setting [3]) was 12.6 nM; in assay [2], 2000 nM.

For `Cc1cnc(-n2nccc(C(C)(C)O)c2=O)cc1-n1c(C)cc(OCc2ncc(F)cc2F)c(Cl)c1=O` (single isomer, unassigned) [Example 9B, rel-3-chloro-4-[(3,5-difluoropyridin-2-yl)methoxy]-2′-[5-(2-hydroxypropan-2-yl)-6-oxopyridazin-1-yl]-5′,6-dimethyl-[1,4′-bipyridin]-2-one], the IC50 in assay [1] (setting [3]) is above 1000 nM; in assay [2], above 316000 nM.

In the case of `Cc1cnc(-n2cc(C(C)(C)O)ccc2=O)cc1-n1c(C)cc(OCc2ncc(F)cc2F)c(Cl)c1=O` (single isomer, unassigned) [Example 13B, rel-3-chloro-4-[(3,5-difluoropyridin-2-yl)methoxy]-2′-[5-(2-hydroxypropan-2-yl)-2-oxopyridin-1-yl]-5′,6-dimethyl-[1,4′-bipyridin]-2-one], in assay [2], the IC50 is 15800 nM.
